Tests used:
CD73 [1] = molecular target: T1, CD73 (Homo sapiens (Human), UniProt P21589); type: biochemical; settings: 1 mM NaH2PO4 in enzyme buffer, CD73 0.3 nM, AMP 15 uM
CD73 [2] = molecular target: T1, CD73; test: MDA-MB-231 Cell Based CD73 Activity Assay (DMEM); settings: MDA-MB-231-GFP cells, DMEM medium with 10% human plasma, 200 uM AMP

T1 sequence (P21589 27-574): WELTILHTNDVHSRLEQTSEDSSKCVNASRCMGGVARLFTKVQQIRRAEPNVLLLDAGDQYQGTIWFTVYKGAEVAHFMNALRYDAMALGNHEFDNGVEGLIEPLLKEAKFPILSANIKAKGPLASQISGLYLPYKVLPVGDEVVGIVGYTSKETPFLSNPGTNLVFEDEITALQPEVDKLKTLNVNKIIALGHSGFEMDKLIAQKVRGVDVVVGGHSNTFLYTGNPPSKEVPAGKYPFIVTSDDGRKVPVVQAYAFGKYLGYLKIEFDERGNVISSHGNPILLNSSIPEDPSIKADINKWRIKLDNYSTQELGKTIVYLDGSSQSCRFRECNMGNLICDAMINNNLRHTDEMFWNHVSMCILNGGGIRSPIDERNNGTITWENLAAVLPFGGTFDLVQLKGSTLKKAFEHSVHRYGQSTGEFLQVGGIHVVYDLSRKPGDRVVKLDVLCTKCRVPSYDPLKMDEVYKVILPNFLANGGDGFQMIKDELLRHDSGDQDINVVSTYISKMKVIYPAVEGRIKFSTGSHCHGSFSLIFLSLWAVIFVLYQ

SMILES	IC50 (CD73 [1])	EC50 (CD73 [2])
CC1(C)C(=O)N(CC(F)(F)F)c2cc([C@H]3C[C@@H]3c3cc(-c4c[nH]c(=O)[nH]c4=O)nn4c(F)cnc34)ccc21 [Example 702, 5-(8-((1S,2S)-2-(3,3-dimethyl-2-oxo-1-(2,2,2-trifluoroethyl)indolin-6-yl)cyclopropyl)-3-fluoroimidazo[1,2-b]pyridazin-6-yl)pyrimidine-2,4(1H,3H)-dione]	1.7 nM	0.26 nM
O=c1[nH]cc(-c2cc([C@H]3C[C@@H]3c3ccc4ccn(CC(F)(F)F)c4n3)c3nccn3n2)c(=O)[nH]1 [Example 704, 5-(8-((1S,2S)-2-(1-(2,2,2-trifluoroethyl)-1H-pyrrolo[2,3-b]pyridin-6-yl)cyclopropyl)imidazo[1,2-b]pyridazin-6-yl)pyrimidine-2,4(1H,3H)-dione]	0.73 nM	0.36 nM
O=c1[nH]cc(-c2cc([C@H]3C[C@@H]3c3cc4c(cn3)c(F)cn4CC(F)(F)F)c3nccn3n2)c(=O)[nH]1 [Example 706, 5-(8-((1S,2S)-2-(3-fluoro-1-(2,2,2-trifluoroethyl)-1H-pyrrolo[3,2-c]pyridin-6-yl)cyclopropyl)imidazo[1,2-b]pyridazin-6-yl)pyrimidine-2,4(1H,3H)-dione]	0.33 nM	0.15 nM
O=c1[nH]cc(-c2cc([C@H]3C[C@@H]3c3ccc4ccn(CC(F)(F)F)c(=O)c4c3)c3nccn3n2)c(=O)[nH]1 [Example 707, 5-(8-((1S,2S)-2-(1-oxo-2-(2,2,2-trifluoroethyl)-1,2-dihydroisoquinolin-7-yl)cyclopropyl)imidazo[1,2-b]pyridazin-6-yl)pyrimidine-2,4(1H,3H)-dione]	2.65 nM	8.88 nM

Continued, values first:

IC50 (CD73 [1])	EC50 (CD73 [2])	SMILES
3.15 nM	0.56 nM	CC1(C)C(=O)N(CC(F)(F)F)c2cc([C@H]3C[C@@H]3c3cc(-c4c[nH]c(=O)[nH]c4=O)nn4ccnc34)cnc21 [Example 699, 5-(8-((1S,2S)-2-(3,3-dimethyl-2-oxo-1-(2,2,2-trifluoroethyl)-2,3-dihydro-1H-pyrrolo[3,2-b]pyridin-6-yl)cyclopropyl)imidazo[1,2-b]pyridazin-6-yl)pyrimidine-2,4(1H,3H)-dione]
4.37 nM	0.54 nM	CC1(C)C(=O)N(CC(F)(F)F)c2cc([C@H]3C[C@@H]3c3cc(-c4c[nH]c(=O)[nH]c4=O)nn4ccnc34)ncc21 [Example 700, 5-(8-((1S,2S)-2-(3,3-dimethyl-2-oxo-1-(2,2,2-trifluoroethyl)-2,3-dihydro-1H-pyrrolo[3,2-c]pyridin-6-yl)cyclopropyl)imidazo[1,2-b]pyridazin-6-yl)pyrimidine-2,4(1H,3H)-dione]
3.04 nM	2.56 nM	O=c1[nH]cc(-c2cc([C@H]3C[C@@H]3c3ccc4c(C(F)(F)F)cn(CC(F)(F)F)c4n3)c3nccn3n2)c(=O)[nH]1 [Example 701, 5-(8-((1S,2S)-2-(1-(2,2,2-trifluoroethyl)-3-(trifluoromethyl)-1H-pyrrolo[2,3-b]pyridin-6-yl)cyclopropyl)imidazo[1,2-b]pyridazin-6-yl)pyrimidine-2,4(1H,3H)-dione]
1.24 nM	0.14 nM	CC1(C)C(=O)N(CC(F)(F)F)c2cc([C@H]3C[C@@H]3c3cc(-c4c[nH]c(=O)[nH]c4=O)nn4ccnc34)ccc21 [Example 703, 5-(8-((1S,2S)-2-(3,3-dimethyl-2-oxo-1-(2,2,2-trifluoroethyl)indolin-6-yl)cyclopropyl)imidazo[1,2-b]pyridazin-6-yl)pyrimidine-2,4(1H,3H)-dione]
0.4 nM	0.07 nM	O=c1[nH]cc(-c2cc([C@H]3C[C@@H]3c3cc4c(ccn4CC(F)(F)F)cn3)c3nccn3n2)c(=O)[nH]1 [Example 705, 5-(8-((1S,2S)-2-(1-(2,2,2-trifluoroethyl)-1H-pyrrolo[3,2-c]pyridin-6-yl)cyclopropyl)imidazo[1,2-b]pyridazin-6-yl)pyrimidine-2,4(1H,3H)-dione]

Source: US20240043427A1 (Gilead Sciences, Inc., priority 2020, published 2024)
